In ChEMBL document CHEMBL6134858, “Structure-Based Discovery Targeting GSK-3α Reveals Potent Nanomolar Selective 4-Phenyl-1H-benzofuro[3,2-b]pyrazolo[4,3-e]pyridine Inhibitor with Promising Glioblastoma and CNS-Active Potential in Cellular Models” (J Med Chem, 2025):
Active and inactive are the calls of the source. No cut-off for these calls is given here.

Experiments:
U-251 [1] = assay: Antiproliferative activity against human U-251MG cells assessed as reduction in cell viability incubated for 24 to 72 hrs by PrestoBlue cell viability assay; assay type: functional, cell-based; settings: dose 0.3-300 µM, time 24-72 hrs
T98G [2] = assay: Antiproliferative activity against human T98G cells assessed as reduction in cell viability incubated for 72 hrs by PrestoBlue cell viability assay
U-87 MG [3] = assay: Antiproliferative activity against human U-87 MG cells assessed as reduction in cell viability incubated for 24 to 72 hrs by PrestoBlue cell viability assay; assay type: functional, cell-based; settings: U-87MG ATCC, time 24-72 hrs
T98G [4] = assay: Antiproliferative activity against human T98G cells assessed as reduction in cell viability incubated for 24 to 72 hrs by PrestoBlue cell viability assay; assay type: functional, cell-based; settings: dose 0.3-300 µM, time 24-72 hrs
T98G [5] = assay: Antiproliferative activity against human T98G cells assessed as reduction in cell viability incubated for 48 hrs by PrestoBlue cell viability assay
U-87 MG [6] = assay: Antiproliferative activity against human U-87 MG cells assessed as reduction in cell viability incubated for 48 hrs by PrestoBlue cell viability assay
U-87 MG [7] = assay: Antiproliferative activity against human U-87 MG cells assessed as reduction in cell viability incubated for 72 hrs by PrestoBlue cell viability assay
U-87 MG [8] = assay: Antiproliferative activity against human U-87 MG cells assessed as reduction in cell viability incubated for 24 hrs by PrestoBlue cell viability assay
U-251 [9] = assay: cells; settings: Homo sapiens, U-251, 24 h
Description: Antiproliferative activity against human U-251MG cells assessed as reduction in cell viability incubated for 24 hrs by PrestoBlue cell viability assay

U-251 [10] = assay: cells; settings: Homo sapiens, U-251, 72 h
Description: Antiproliferative activity against human U-251MG cells assessed as reduction in cell viability incubated for 72 hrs by PrestoBlue cell viability assay

T98G [11] = assay: Antiproliferative activity against human T98G cells assessed as reduction in cell viability incubated for 24 hrs by PrestoBlue cell viability assay
U-251 [12] = assay: cells; settings: Homo sapiens, U-251, 48 h
Description: Antiproliferative activity against human U-251MG cells assessed as reduction in cell viability incubated for 48 hrs by PrestoBlue cell viability assay

[13] = biological target: RAC-beta serine/threonine-protein kinase (Homo sapiens) (UniProt P31751); assay: Inhibition of PKBbeta (unknown origin) assessed as residual activity at 10 uM relative to control
[14] = Metabolic stability in human liver microsomes assessed as half life at 10 uM incubated up to 60 mins by HPLC-MS analysis; assay type: ADME, Microsome
[15] = biological target: Cyclin-dependent kinase 2 (Homo sapiens) (UniProt P24941); assay: Inhibition of CDK2 (unknown origin) assessed as residual activity at 10 uM relative to control
[16] = biological target: Mitogen-activated protein kinase 1 (Homo sapiens) (UniProt P28482); assay: Inhibition of ERK2 (unknown origin) assessed as residual activity at 10 uM relative to control
[17] = biological target: Protein kinase C gamma type (Homo sapiens) (UniProt P05129); assay: Inhibition of PKCgamma (unknown origin) assessed as residual activity at 10 uM relative to control
U-87 MG [18] = assay: Induction of cell cycle arrest in human U-87 MG cells assessed as accumulation of cell at S phase at IC50 concentration incubated for 72 hrs by propidium iodide/RNase staining based flow cytometry relative to control; assay type: functional, U-87MG ATCC
[19] = Inhibition of PKA (unknown origin); design: species or system Homo sapiens
[20] = biological target: Cyclin-dependent kinase 5 (Homo sapiens) (UniProt Q00535); assay: Inhibition of CDK5 (unknown origin) assessed as residual activity at 10 uM relative to control
[21] = biological target: RAC-alpha serine/threonine-protein kinase (Homo sapiens) (UniProt P31749); assay: Inhibition of PKBalpha (unknown origin) assessed as residual activity at 10 uM relative to control
[22] = Cytotoxicity against human Astrocyte at 100 uM incubated for 72 hrs by PrestoBlue cell viability assay; assay type: toxicity, cell-based
[23] = biological target: Cyclin-dependent kinase 9 (Homo sapiens) (UniProt P50750); assay: Inhibition of CDK9 (unknown origin) assessed as residual activity at 10 uM relative to control
Homo sapiens [24] = organism: Homo sapiens; assay: Inhibition of PKA (unknown origin) assessed as residual activity at 10 uM relative to control
[25] = Metabolic stability in human liver microsomes assessed as intrinsic clearance at 10 uM incubated up to 60 mins by HPLC-MS analysis; assay type: ADME, Microsome; settings: 1 h
T98G [26] = assay: Induction of cell cycle arrest in human T98G cells assessed as accumulation of cell at S phase at IC50 concentration incubated for 72 hrs by propidium iodide/RNase staining based flow cytometry relative to control; assay type: functional
U-251 [27] = assay: Induction of cell cycle arrest in human U-251MG cells assessed as accumulation of cell at S phase at IC50 concentration incubated for 72 hrs by propidium iodide/RNase staining based flow cytometry relative to control; assay type: functional
T98G [28] = assay: Induction of cell cycle arrest in human T98G cells assessed as accumulation of cell at G1 phase at IC50 concentration incubated for 72 hrs by propidium iodide/RNase staining based flow cytometry (reference value: 73.3 %); assay type: functional
U-87 MG [29] = assay: Induction of cell cycle arrest in human U-87 MG cells assessed as accumulation of cell at sub-G1 phase at IC50 concentration incubated for 72 hrs by propidium iodide/RNase staining based flow cytometry relative to control; assay type: functional; settings: U-87MG ATCC
[30] = biological target: Mitogen-activated protein kinase 3 (Homo sapiens) (UniProt P27361); assay: Inhibition of ERK1 (unknown origin) assessed as residual activity at 10 uM relative to control
T98G [31] = assay: Antiproliferative activity against human T98G cells assessed as reduction in cell viability at IC50 concentrations incubated for 72 hrs by PrestoBlue cell viability assay relative to control; assay type: functional
T98G [32] = assay: Antiproliferative activity against human T98G cells assessed as reduction in cell viability at IC50 concentrations incubated for 72 hrs in presence of in BBB model (cocultured with HA, HBVP and HBMEC cells) by PrestoBlue cell viability assay relative to control; assay type: functional
[33] = biological target: Protein kinase C alpha type (Homo sapiens) (UniProt P17252); assay: Inhibition of PKCalpha (unknown origin) assessed as residual activity at 10 uM relative to control
U-87 MG [34] = assay: Induction of cell cycle arrest in human U-87 MG cells assessed as accumulation of cell at G1 phase at IC50 concentration incubated for 72 hrs by propidium iodide/RNase staining based flow cytometry (reference value: 55.0 %); assay type: functional, U-87MG ATCC
U-251 [35] = assay: Induction of cell cycle arrest in human U-251MG cells assessed as accumulation of cell at G1 phase at IC50 concentration incubated for 72 hrs by propidium iodide/RNase staining based flow cytometry (reference value: 74.8 %); assay type: functional
Homo sapiens [36] = organism: Homo sapiens; assay: Inhibition of PKA (unknown origin) at 10 uM
[37] = Cytotoxicity against human Astrocyte at 10 to 100 uM incubated for 72 hrs by PrestoBlue cell viability assay; assay type: toxicity, cell-based; settings: dose 10-100 µM

Sequence of Cyclin-dependent kinase 5 (Homo sapiens) (Q00535 whole entry, looked up): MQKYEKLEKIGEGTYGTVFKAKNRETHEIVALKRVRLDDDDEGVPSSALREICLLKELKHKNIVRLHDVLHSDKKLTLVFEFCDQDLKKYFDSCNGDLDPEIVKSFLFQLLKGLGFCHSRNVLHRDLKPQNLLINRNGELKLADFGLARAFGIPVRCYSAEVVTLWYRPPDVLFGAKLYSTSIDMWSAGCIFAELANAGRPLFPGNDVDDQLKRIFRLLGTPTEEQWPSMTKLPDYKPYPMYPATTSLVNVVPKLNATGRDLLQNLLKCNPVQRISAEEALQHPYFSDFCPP
Sequence of RAC-alpha serine/threonine-protein kinase (Homo sapiens) (P31749 whole entry): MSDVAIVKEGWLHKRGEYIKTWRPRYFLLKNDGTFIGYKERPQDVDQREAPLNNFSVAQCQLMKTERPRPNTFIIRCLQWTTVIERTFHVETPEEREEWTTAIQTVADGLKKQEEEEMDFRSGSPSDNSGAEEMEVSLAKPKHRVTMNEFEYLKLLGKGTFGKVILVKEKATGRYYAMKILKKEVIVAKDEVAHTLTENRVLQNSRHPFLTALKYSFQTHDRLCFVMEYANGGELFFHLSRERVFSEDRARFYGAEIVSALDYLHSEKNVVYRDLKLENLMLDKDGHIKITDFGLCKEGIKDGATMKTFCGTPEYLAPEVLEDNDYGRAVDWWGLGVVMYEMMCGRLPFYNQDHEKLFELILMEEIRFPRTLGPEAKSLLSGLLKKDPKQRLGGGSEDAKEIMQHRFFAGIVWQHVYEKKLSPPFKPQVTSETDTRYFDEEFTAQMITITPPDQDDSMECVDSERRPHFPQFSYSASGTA
Sequence of Mitogen-activated protein kinase 1 (Homo sapiens) (P28482 whole entry): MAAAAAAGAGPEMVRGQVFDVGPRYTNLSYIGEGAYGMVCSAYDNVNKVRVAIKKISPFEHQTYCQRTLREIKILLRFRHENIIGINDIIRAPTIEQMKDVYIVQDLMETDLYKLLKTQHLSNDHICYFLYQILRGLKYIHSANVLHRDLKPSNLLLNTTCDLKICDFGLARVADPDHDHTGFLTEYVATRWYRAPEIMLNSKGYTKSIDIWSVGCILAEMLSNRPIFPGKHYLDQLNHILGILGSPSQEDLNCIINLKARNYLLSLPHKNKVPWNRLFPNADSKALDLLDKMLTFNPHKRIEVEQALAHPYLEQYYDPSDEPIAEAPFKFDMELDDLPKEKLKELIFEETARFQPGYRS
Sequence of RAC-beta serine/threonine-protein kinase (Homo sapiens) (P31751 whole entry): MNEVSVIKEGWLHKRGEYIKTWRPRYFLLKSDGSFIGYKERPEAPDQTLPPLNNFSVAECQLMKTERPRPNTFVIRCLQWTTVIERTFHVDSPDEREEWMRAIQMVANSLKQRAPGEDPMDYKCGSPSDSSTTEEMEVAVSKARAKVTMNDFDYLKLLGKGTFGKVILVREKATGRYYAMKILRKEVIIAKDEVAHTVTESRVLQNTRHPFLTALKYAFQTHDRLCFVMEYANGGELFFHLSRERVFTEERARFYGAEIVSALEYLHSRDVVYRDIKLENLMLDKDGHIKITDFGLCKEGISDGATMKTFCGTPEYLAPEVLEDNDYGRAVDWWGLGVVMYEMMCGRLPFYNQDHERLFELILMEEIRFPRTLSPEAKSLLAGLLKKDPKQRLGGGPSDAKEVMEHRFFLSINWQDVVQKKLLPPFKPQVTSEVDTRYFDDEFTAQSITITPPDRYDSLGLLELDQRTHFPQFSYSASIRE
Sequence of Mitogen-activated protein kinase 3 (Homo sapiens) (P27361 whole entry): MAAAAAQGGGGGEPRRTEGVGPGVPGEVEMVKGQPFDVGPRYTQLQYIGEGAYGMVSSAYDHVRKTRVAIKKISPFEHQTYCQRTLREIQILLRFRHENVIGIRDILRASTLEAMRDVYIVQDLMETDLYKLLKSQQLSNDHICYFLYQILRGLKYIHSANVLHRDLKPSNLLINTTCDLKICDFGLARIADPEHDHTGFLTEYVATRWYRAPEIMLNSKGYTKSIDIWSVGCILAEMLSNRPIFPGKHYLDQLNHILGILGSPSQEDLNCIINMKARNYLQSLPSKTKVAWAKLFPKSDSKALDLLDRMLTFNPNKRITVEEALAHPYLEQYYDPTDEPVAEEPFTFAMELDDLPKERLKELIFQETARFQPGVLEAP
Sequence of Cyclin-dependent kinase 9 (Homo sapiens) (P50750 whole entry): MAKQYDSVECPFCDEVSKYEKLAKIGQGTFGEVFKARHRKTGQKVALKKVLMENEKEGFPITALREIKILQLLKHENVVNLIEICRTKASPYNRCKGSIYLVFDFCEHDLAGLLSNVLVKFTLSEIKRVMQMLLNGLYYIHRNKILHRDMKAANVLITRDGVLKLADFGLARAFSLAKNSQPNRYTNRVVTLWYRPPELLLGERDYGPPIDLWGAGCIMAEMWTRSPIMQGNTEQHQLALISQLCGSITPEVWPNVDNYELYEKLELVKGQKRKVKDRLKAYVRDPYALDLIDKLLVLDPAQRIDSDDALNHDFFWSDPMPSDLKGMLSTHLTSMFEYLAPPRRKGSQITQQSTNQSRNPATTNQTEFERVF

Cn1sc(=O)n(Cc2ccccc2)c1=O
Activity (U-251 [1]): Dose-dependent-effect | IC50 (T98G [2]): 41.4 µM | Activity (U-87 MG [3]): Dose-dependent-effect | Activity (T98G [4]): Dose-dependent-effect | IC50 (T98G [5]): 54.4 µM | IC50 (U-87 MG [6]): 28.2 µM | IC50 (U-87 MG [7]): 23.6 µM | IC50 (U-87 MG [8]): 36.8 µM | IC50 (U-251 [9]): 51 µM | IC50 (U-251 [10]): 15.7 µM | IC50 (T98G [11]): 65.9 µM | IC50 (U-251 [12]): 24.9 µM

CC(C)c1ccc(-c2c3cn[nH]c3nc3c2oc2cc(O)ccc23)cc1
Activity [13]: > 50% | half-life at 10 µM [14]: 1.68 h | Activity [15]: > 50% | Activity [16]: > 50% | Activity [17]: > 50% | Activity (U-87 MG [18]): 27.8% | IC50 [19]: 0.188 µM | Activity (U-251 [1]): Dose-dependent-effect | Activity [20]: > 50% | IC50 (T98G [2]): 6.2 µM | Activity [21]: > 50% | Activity [22]: Non-toxic | Activity [23]: > 50% | Activity (U-87 MG [3]): Dose-dependent-effect | Activity (Homo sapiens [24]): > 50% | CLH [25]: 5.6 µL/min/mg | Activity (T98G [26]): 22.3% | Activity (T98G [4]): Dose-dependent-effect | Activity (U-251 [27]): 15.9% | Activity (T98G [28]): 65.8% | Activity (U-87 MG [29]): Active | Activity [30]: > 50% | IC50 (T98G [5]): 8.1 µM | Activity (T98G [31]): 61% | Activity (T98G [32]): 78% | IC50 (U-87 MG [6]): 4.7 µM | IC50 (U-87 MG [7]): 3.3 µM | IC50 (U-87 MG [8]): 15 µM | IC50 (U-251 [9]): 15.1 µM | IC50 (U-251 [10]): 6.1 µM | IC50 (T98G [11]): 12 µM | IC50 (U-251 [12]): 8.3 µM | Activity [33]: > 50% | Activity (U-87 MG [34]): 45.5% | Activity (U-251 [35]): 61.6% | inhibition (Homo sapiens [36]): Active | Activity [37]: Non-toxic
